Several values for one entry are separate records, joined by “and”; a condition that tells them apart may be missing. Equal values may be shown once.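 Five compound concentrations were applied to cells in 96-well plates for 48 hours; endpoints were derived by simple linear interpolation of the resulting dose-response curve. Here, GI50 denotes the concentration required for 50% inhibition of growth.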 Activity calls are given as the source filed them. Rule as the data show it: active = GI50 up to about 1.1 µM and inactive = higher. Where only a bound is given, the exact number is not on record here.

Test systems include K562; HCT-15; MDA-N; KM12; ACHN; SK-MEL-2; OVCAR-8; Malme-3M; MDA-MB-231; NCI-H23; M14; HL-60; HCT-116; PC-3; OVCAR-4; DU-145; NCI-H522; SK-MEL-5; LOX IMVI; A498.
What all share (assay): inhibition of tumour cell growth, NCI panel, 48 h

For `COC(CNC(=O)C(C)NC(=O)CCc1ccccc1)OC` (stereo not drawn), the GI50 in the experiment with K562 is > 100 µM (inactive); with HCT-15, above 100 µM; in the experiment on MDA-N, > 100 µM (inactive); in the experiment with KM12, > 100 µM (inactive); in the experiment on ACHN it was > 100 µM (inactive); in the experiment on SK-MEL-2, > 100 µM (inactive). For the same compound, the GI50 with OVCAR-8, in the experiment with Malme-3M, with MDA-MB-231, with NCI-H23, in the experiment with M14 and in the experiment on HL-60 was > 100 µM (inactive) each time. Moreover, the GI50 in the experiment with HCT-116, in the experiment on PC-3, with OVCAR-4, in the experiment on DU-145, with NCI-H522 and in the experiment on SK-MEL-5 was > 100 µM (inactive) in each case.
`N#CCCC1(CCC#N)CCc2ccccc2C1=O`: the GI50 with K562 is > 100 µM (inactive); in the experiment with HCT-15, above 100 µM; with MDA-N, > 100 µM (inactive); in the experiment with KM12 it was > 100 µM (inactive); in the experiment with ACHN it was > 100 µM (inactive); with LOX IMVI it was > 100 µM (inactive). The GI50 in the experiment with SK-MEL-2, in the experiment with OVCAR-8, in the experiment on Malme-3M, with MDA-MB-231, with NCI-H23 and with M14 was > 100 µM (inactive) each time. In addition, the GI50 in the experiment with HL-60, in the experiment on HCT-116, in the experiment with PC-3, with OVCAR-4, in the experiment with DU-145 and with NCI-H522 was > 100 µM (inactive) in each case. For the same compound, the GI50 in the experiment with SK-MEL-5 is > 100 µM (inactive).
As for `CC(C)C1C(=O)N2CCCC2C2(O)OC(NC(=O)C3C=C4c5cccc6[nH]cc(c56)CC4N(C)C3)(C(C)C)C(=O)N12` (stereo not drawn), the GI50 in the experiment with HCT-15 is 20.5 µM; in the experiment on MDA-N, 25 µM (inactive); with KM12 it was 20.7 µM (inactive); with ACHN, 18.9 µM (inactive); in the experiment on LOX IMVI, 18.1 µM (inactive); with SK-MEL-2 it was 17.7 µM (inactive). For the same compound, the GI50 in the experiment with OVCAR-8 was 19.2 µM (inactive); in the experiment with MDA-MB-231, 15.9 µM (inactive); in the experiment with NCI-H23 it was 26.9 µM (inactive); in the experiment on M14, 23.8 µM (inactive); with HL-60 it was 27 µM (inactive); in the experiment with HCT-116, 17.9 µM (inactive). For the same compound, the GI50 in the experiment on PC-3 was 21.1 µM (inactive); with OVCAR-4 it was 18.3 µM (inactive); in the experiment on DU-145, 35.4 µM (inactive); in the experiment on NCI-H522 it was 21 µM (inactive); in the experiment with SK-MEL-5 it was 20.6 µM (inactive).
As to `CN(Cc1cnc2nc(N)nc(N)c2n1)c1ccc(C(=O)NC(CCS(=O)(=O)O)C(=O)O)cc1` (stereo not drawn), the GI50 with HCT-15 is 0.25 µM; in the experiment on MDA-N it was 0.35 µM (active); in the experiment on KM12 it was 0.661 µM (active); in the experiment with ACHN, 0.527 µM (active); in the experiment on LOX IMVI, 0.103 µM (active); in the experiment on SK-MEL-2 it was > 100 µM (inactive). The GI50 is 21.9 µM (inactive) in the experiment on OVCAR-8; > 100 µM (inactive) with A498; > 100 µM (inactive) in the experiment with MDA-MB-231; 1.88 µM (inactive) with NCI-H23; 0.682 µM (active) in the experiment on M14; < 0.0336 µM (active) in the experiment with HL-60. Moreover, the GI50 was 0.0745 µM (active) in the experiment on HCT-116; 0.0665 µM (active) in the experiment with PC-3; > 100 µM (inactive) in the experiment with OVCAR-4; 0.527 µM (active) with NCI-H522; 1.79 µM (inactive) in the experiment on SK-MEL-5.
Regarding `Cc1c2c(n(CCc3ccccc3)c1C)NN=C(C#N)S2(=O)=O`, the GI50 with K562 is > 100 µM (inactive); in the experiment with HCT-15, above 100 µM; with MDA-N it was > 100 µM (inactive); with KM12, > 100 µM (inactive); in the experiment with ACHN, > 100 µM (inactive); with LOX IMVI it was > 100 µM (inactive). In addition, the GI50 with SK-MEL-2, with OVCAR-8, in the experiment on Malme-3M, with MDA-MB-231, in the experiment on NCI-H23 and in the experiment with M14 was > 100 µM (inactive) each time. For the same compound, the GI50 is > 100 µM (inactive) in the experiment on HCT-116; > 100 µM (inactive) in the experiment with PC-3; > 100 µM (inactive) in the experiment with OVCAR-4; > 100 µM (inactive) in the experiment on DU-145; 71.1 µM (inactive) with NCI-H522; > 100 µM (inactive) with SK-MEL-5.
As for `O=c1c(/C=C/c2c(O)ccc3ccccc23)nnc2sc(-c3cccc([N+](=O)[O-])c3)nn12`, the GI50 is 25.6 µM (inactive) in the experiment on K562; 4.43 µM in the experiment on HCT-15; 28.7 µM (inactive) in the experiment with MDA-N; 22.1 µM (inactive) in the experiment on KM12; 5.12 µM (inactive) in the experiment on ACHN; 6.56 µM (inactive) with LOX IMVI. Also, the GI50 with SK-MEL-2 is 5.57 µM (inactive); in the experiment with OVCAR-8, 13.7 µM (inactive); in the experiment on Malme-3M, 11.4 µM (inactive); in the experiment with MDA-MB-231 it was 7.33 µM (inactive); in the experiment on NCI-H23 it was 19.1 µM (inactive); in the experiment with M14, 10.8 µM (inactive). The GI50 with HL-60 was 2.62 µM (inactive); with HCT-116, 4.98 µM (inactive); in the experiment with PC-3, 10.1 µM (inactive); in the experiment on OVCAR-4, 6.98 µM (inactive); in the experiment with DU-145 it was 8.38 µM (inactive); in the experiment with NCI-H522 it was 9.33 µM (inactive).
Turning to `CCNC(=O)CCC(C)[C@H]1CCC2C3C(C[C@H](OC(C)=O)[C@@]21C)[C@@]1(C)CCC2(C[C@H]1C[C@H]3OC(C)=O)OOC1(CCC(C)CC1)OO2` (stereo partly drawn), the GI50 with K562 was 3.8 µM (inactive); in the experiment on HCT-15, 1.99 µM and 2 µM; in the experiment on MDA-N it was 1.88 µM (inactive) and 2.65 µM (inactive); in the experiment on KM12, 1.64 µM (inactive) and 1.57 µM (inactive); in the experiment on ACHN, 1.55 µM (inactive) and 1.63 µM (inactive); in the experiment with LOX IMVI it was 1.83 µM (inactive) and 2.05 µM (inactive). Further, the GI50 with SK-MEL-2 was 1.58 µM (inactive) and 1.61 µM (inactive); in the experiment on OVCAR-8 it was 2.61 µM (inactive) and 1.51 µM (inactive); in the experiment with Malme-3M, 2.23 µM (inactive) and 1.6 µM (inactive); in the experiment with MDA-MB-231, 2.1 µM (inactive); in the experiment on NCI-H23, 2.13 µM (inactive) and 2.2 µM (inactive); in the experiment with M14, 2.73 µM (inactive) and 2.14 µM (inactive). The GI50 with HL-60 was 1.49 µM (inactive) and 1.97 µM (inactive); in the experiment on HCT-116, 1.94 µM (inactive) and 1.79 µM (inactive); with OVCAR-4, 1.24 µM (inactive) and 1.58 µM (inactive); in the experiment with DU-145, 1.73 µM (inactive) and 2.37 µM (inactive); in the experiment with NCI-H522 it was 1.47 µM (inactive) and 1.22 µM (inactive); in the experiment with SK-MEL-5 it was 1.67 µM (inactive) and 1.61 µM (inactive).
On to `CC(=O)CCC(=O)C(=[N+]=[N-])S(=O)(=O)c1ccccc1`, for which the GI50 in the experiment on K562 was > 100 µM (inactive); with HCT-15 it was above 100 µM; in the experiment with MDA-N it was > 100 µM (inactive); in the experiment with KM12, > 100 µM (inactive); in the experiment with ACHN, > 100 µM (inactive); in the experiment with LOX IMVI, > 100 µM (inactive). The GI50 in the experiment on SK-MEL-2, with OVCAR-8, with Malme-3M, in the experiment with MDA-MB-231, in the experiment on NCI-H23 and in the experiment with M14 was > 100 µM (inactive) throughout. Also, the GI50 in the experiment with HL-60 is > 100 µM (inactive); in the experiment with HCT-116, > 100 µM (inactive); with PC-3, > 100 µM (inactive); in the experiment with DU-145, > 100 µM (inactive); in the experiment on NCI-H522, 45.8 µM (inactive); with SK-MEL-5, > 100 µM (inactive).
`N=C(N)N/N=C/c1c(Cl)nc2n1CCS2`: the GI50 in the experiment with K562 is 53.2 µM (inactive); with HCT-15, above 100 µM; in the experiment with MDA-N it was 29 µM (inactive); in the experiment with KM12, 34.8 µM (inactive); in the experiment with ACHN, 54.7 µM (inactive); in the experiment on LOX IMVI it was > 100 µM (inactive). Further, the GI50 was > 100 µM (inactive) in the experiment on SK-MEL-2; > 100 µM (inactive) in the experiment with OVCAR-8; 90.8 µM (inactive) in the experiment with A498; > 100 µM (inactive) with Malme-3M; 96.2 µM (inactive) with NCI-H23; 56.4 µM (inactive) in the experiment with M14. For the same compound, the GI50 is > 100 µM (inactive) in the experiment on HL-60; 16.6 µM (inactive) in the experiment on HCT-116; 66.5 µM (inactive) in the experiment with PC-3; > 100 µM (inactive) in the experiment on OVCAR-4; 90.2 µM (inactive) in the experiment on DU-145; 42.4 µM (inactive) with NCI-H522. Moreover, the GI50 with SK-MEL-5 is > 10 µM (inactive).
Consider `Cn1c2ccccc2c2c(=O)[nH]c(=O)[nH]c21`, for which the GI50 in the experiment on K562 was > 100 µM (inactive); in the experiment with HCT-15, above 100 µM; with MDA-N, > 100 µM (inactive); with KM12, > 100 µM (inactive); in the experiment with ACHN, > 100 µM (inactive); in the experiment with LOX IMVI it was > 100 µM (inactive). For the same compound, the GI50 with SK-MEL-2, with OVCAR-8, in the experiment with A498, in the experiment on Malme-3M, in the experiment on MDA-MB-231 and in the experiment on NCI-H23 was > 100 µM (inactive) in each case. Further, the GI50 in the experiment on M14, in the experiment on HL-60, with HCT-116, in the experiment with DU-145, in the experiment with NCI-H522 and with SK-MEL-5 was > 100 µM (inactive) in each case.
Consider `CCN1C(=O)C(=C/C=C/c2ccc(OC)cc2)C(=O)N(CC)C1=S`, for which the GI50 with K562 was 31.3 µM (inactive); in the experiment with HCT-15, 17.5 µM; with MDA-N, 18.2 µM (inactive); in the experiment on KM12, 20.3 µM (inactive); in the experiment on ACHN, 17.7 µM (inactive); in the experiment with LOX IMVI it was 17.3 µM (inactive). Further, the GI50 with SK-MEL-2 is > 100 µM (inactive); with OVCAR-8 it was 21.4 µM (inactive); in the experiment on Malme-3M it was 12.5 µM (inactive); in the experiment with MDA-MB-231 it was 19.8 µM (inactive); with NCI-H23, > 100 µM (inactive); in the experiment on M14, 22.1 µM (inactive). For the same compound, the GI50 in the experiment with HL-60 is 7.5 µM (inactive); in the experiment with HCT-116, 17.8 µM (inactive); in the experiment with PC-3, 19.4 µM (inactive); with OVCAR-4, 95.5 µM (inactive); in the experiment on DU-145, 19.1 µM (inactive); in the experiment with SK-MEL-5, 26.5 µM (inactive).

Values taken from ChEMBL document CHEMBL1201862, “PubChem BioAssay data set” (2004).
